Source: US8962856B2, “Modulators of cystic fibrosis transmembrane conductance regulator” (Vertex Pharmaceuticals Incorporated, priority 2005, dated 2015)
pEC50: −log10 of the molar value.

Target: T1, ΔF508-CFTR (Homo sapiens, UniProt P13569, DEL508-508)
T1 construct: expressed in transfected cells
Experiment: Membrane potential optical assay for ΔF508-CFTR correction
Format: cell-based
Conditions: for % Efficacy / Emax: relative efficacy
Description: Assays for Detecting and Measuring ΔF508-CFTR Correction Properties of Compounds
I) Membrane Potential Optical Methods for Assaying ΔF508-CFTR Modulation Properties of Compounds
The optical membrane potential assay utilized voltage-sensitive FRET sensors described by Gonzalez and Tsien (See Gonzalez, J. E. and R. Y. Tsien (1995) “Voltage sensing by fluorescence resonance energy transfer in single cells” Biophys J 69(4): 1272-80, and Gonzalez, J. E. and R. Y. Tsien (1997) “Improved indicators of cell membrane potential that use fluorescence resonance energy transfer” Chem Biol 4(4): 269-77) in combination with instrumentation for measuring fluorescence changes such as the Voltage/Ion Probe Reader (VIPR) (See, Gonzalez, J. E., K. Oades, et al. (1999) “Cell-based assays and instrumentation for screening ion-channel targets” Drug Discov Today 4(9): 431-439).
These voltage sensitive assays are based on the change in fluorescence resonant energy transfer (FRET) between the membrane-soluble, voltage-sensitive dye, DiSBAC2(3), and a fluorescent phospholipid, CC2-DMPE, which is attached to the outer leaflet of the plasma membrane and acts as a FRET donor. Changes in membrane potential (Vm) cause the negatively charged DiSBAC2(3) to redistribute across the plasma membrane and the amount of energy transfer from CC2-DMPE changes accordingly. The changes in fluorescence emission were monitored using VIPR™ II, which is an integrated liquid handler and fluorescent detector designed to conduct cell-based screens in 96- or 384-well microtiter plates.
NIH3T3 mouse fibroblasts stably expressing ΔF508-CFTR are used for optical measurements of membrane potential. The cells are maintained at 37° C. in 5% CO2 and 90% humidity in Dulbecco's modified Eagle's medium supplemented with 2 mM glutamine, 10% fetal bovine serum, 1×NEAA, β-ME, 1× pen/strep, and 25 mM HEPES in 175 cm^2 culture flasks. For all optical assays, the cells were seeded at 30,000/well in 384-well matrigel-coated plates and cultured for 2 hrs at 37° C. before culturing at 27° C. for 24 hrs. for the potentiator assay. For the correction assays, the cells are cultured at 27° C. or 37° C. with and without compounds for 16-24 hoursB) Electrophysiological Assays for assaying ΔF508-CFTR modulation properties of compounds

T1 sequence (P13569 with tags, fused parts or gaps DEL508-508): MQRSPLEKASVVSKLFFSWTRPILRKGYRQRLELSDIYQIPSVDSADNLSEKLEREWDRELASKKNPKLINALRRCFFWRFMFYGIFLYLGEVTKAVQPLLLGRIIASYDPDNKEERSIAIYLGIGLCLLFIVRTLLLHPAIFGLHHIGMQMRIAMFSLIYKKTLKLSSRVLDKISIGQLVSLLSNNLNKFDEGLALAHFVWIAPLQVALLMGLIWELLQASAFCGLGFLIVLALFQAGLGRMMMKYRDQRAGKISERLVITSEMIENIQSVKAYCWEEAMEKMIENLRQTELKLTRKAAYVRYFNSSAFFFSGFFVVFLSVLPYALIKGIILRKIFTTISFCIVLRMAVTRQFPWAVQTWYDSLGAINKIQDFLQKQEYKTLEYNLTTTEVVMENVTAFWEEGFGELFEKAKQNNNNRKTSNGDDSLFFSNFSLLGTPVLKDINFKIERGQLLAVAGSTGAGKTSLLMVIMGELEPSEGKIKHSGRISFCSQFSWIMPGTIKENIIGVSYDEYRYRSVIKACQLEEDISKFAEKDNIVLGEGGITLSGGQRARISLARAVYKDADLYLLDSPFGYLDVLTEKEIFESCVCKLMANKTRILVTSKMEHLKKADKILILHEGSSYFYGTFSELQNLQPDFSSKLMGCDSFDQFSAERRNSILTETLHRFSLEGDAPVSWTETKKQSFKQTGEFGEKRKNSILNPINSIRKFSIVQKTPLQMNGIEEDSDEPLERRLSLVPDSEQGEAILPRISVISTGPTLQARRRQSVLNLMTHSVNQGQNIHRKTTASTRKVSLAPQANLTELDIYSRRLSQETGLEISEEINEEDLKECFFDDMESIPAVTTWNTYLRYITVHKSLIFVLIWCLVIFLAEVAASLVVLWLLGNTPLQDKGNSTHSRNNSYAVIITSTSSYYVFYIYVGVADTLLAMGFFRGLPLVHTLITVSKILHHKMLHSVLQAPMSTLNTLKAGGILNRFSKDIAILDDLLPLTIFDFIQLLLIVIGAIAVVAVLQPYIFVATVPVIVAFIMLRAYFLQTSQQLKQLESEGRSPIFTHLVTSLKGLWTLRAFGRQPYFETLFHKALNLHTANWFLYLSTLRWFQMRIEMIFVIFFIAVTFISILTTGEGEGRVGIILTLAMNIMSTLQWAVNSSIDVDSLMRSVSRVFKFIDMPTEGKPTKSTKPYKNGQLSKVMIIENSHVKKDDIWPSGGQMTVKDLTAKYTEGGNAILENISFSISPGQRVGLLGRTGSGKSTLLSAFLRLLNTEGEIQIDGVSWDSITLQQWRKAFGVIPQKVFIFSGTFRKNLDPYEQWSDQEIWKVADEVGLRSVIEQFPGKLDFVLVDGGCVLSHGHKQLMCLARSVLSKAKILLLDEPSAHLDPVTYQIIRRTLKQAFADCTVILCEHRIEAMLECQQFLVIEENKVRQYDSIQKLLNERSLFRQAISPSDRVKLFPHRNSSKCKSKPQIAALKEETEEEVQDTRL

“1-(Benzo[d][1,3]dioxol-6-yl)-N-(5-((R)-(2-chlorophenyl)((R)-3-hydroxypyrrolidin-1-yl)methyl)thiazol-2-yl)cyclopropanecarboxamide [Compound 2]” was tested, and the pEC50 was 4.70 to 5.70 and the “% Efficacy” value was “+++ (“+++” means >100%)”.

In the case of “1-(Benzo[d][1,3]dioxol-6-yl)-N-(5-((S)-(2-chlorophenyl)((R)-3-hydroxypyrrolidin-1-yl)methyl)thiazol-2-yl)cyclopropanecarboxamide [Compound 1]”, the pEC50 was over 5.70 and the “% Efficacy” value was “+++ (“+++” means >100%)”.

With `O=C(Nc1ncc([C@H](c2ccc(Cl)cc2F)N2CC[C@@H](O)C2)s1)C1(c2ccc3c(c2)OCO3)CC1` [Compound 3] the pEC50 was over 5.70 and the Emax was over 100%.

For `O=C(Nc1ncc([C@H](c2ccc(Cl)cc2F)N2CC[C@@H](O)C2)s1)C1(c2ccc3c(c2)OC(F)(F)O3)CC1` [Compound 4], the pEC50 was over 5.70 and the Emax was over 100%.

In the case of `O=C(Nc1ncc([C@H](c2ccc(Cl)c(Cl)c2)N2CC[C@@H](O)C2)s1)C1(c2ccc3c(c2)OCO3)CC1` [Compound 5], the pEC50 was over 5.70 and the Emax was over 100%.

Compound `O=C(Nc1ncc([C@@H](c2ccc(Cl)c(Cl)c2)N2CC[C@@H](O)C2)s1)C1(c2ccc3c(c2)OCO3)CC1` [Compound 6] has a pEC50 of over 5.70 and an Emax of over 100%.

`Cc1nc(NC(=O)C2(c3ccc4c(c3)OCO4)CC2)sc1[C@@H](c1ccccc1Cl)N1CC[C@H](O)C1` [Compound 7] was tested, and the pEC50 was over 5.70 and the Emax was over 100%.

`Cc1nc(NC(=O)C2(c3ccc4c(c3)OCO4)CC2)sc1[C@H](c1ccccc1Cl)N1CC[C@H](O)C1` [Compound 8] gave a pEC50 of over 5.70 and an Emax of over 100%.

For `Cc1nc(NC(=O)C2(c3ccc4c(c3)OC(F)(F)O4)CC2)sc1[C@@H](c1ccccc1Cl)N1CC[C@H](O)C1` [Compound 9], the pEC50 was over 5.70 and the Emax was over 100%.

For `Cc1nc(NC(=O)C2(c3ccc4c(c3)OC(F)(F)O4)CC2)sc1[C@H](c1ccccc1Cl)N1CC[C@H](O)C1` [Compound 10], the pEC50 was over 5.70 and the Emax was over 100%.

For `O=C(Nc1ncc(C(c2ccccc2Cl)N2CC[C@@H](O)C2)s1)C1(c2ccc3c(c2)OC(F)(F)O3)CC1` (some centres unmarked) [Compound 11], the Emax was over 100%.

Compound `O=C(Nc1ncc([C@H](c2ccccc2Cl)N2CC[C@@H](O)C2)s1)C1(c2ccc3c(c2)OC(F)(F)O3)CC1` [Compound 11] has a pEC50 of over 5.70.

Work on `O=C(Nc1ncc([C@H](c2ccccc2Cl)N2CC[C@@H](O)C2)s1)C1(c2ccc3c(c2)OCO3)CC1` [Compound 12] yielded a pEC50 of over 5.70 and an Emax of 25 to 100%.

In the case of `O=C(Nc1ncc([C@@H](c2ccccc2Cl)N2CC[C@@H](O)C2)s1)C1(c2ccc3c(c2)OCO3)CC1` [Compound 13], the pEC50 was over 5.70 and the Emax was over 100%.
